Test results as given in patent US20240417411A1, “COMPOUNDS AND METHODS FOR TREATMENT OF VIRAL INFECTIONS” (priority 2023, published 2024).

Assays:
SARS-CoV2-NLuc = assay: microbe, parasite or virus in culture; format: cell-based, SARS Coronavirus 2; settings: Severe acute respiratory syndrome coronavirus 2, 48 h, read-out: SARS-CoV2 EC50 (nM)
RSV-Luc5 = assay: microbe, parasite or virus in culture; format: cell-based; settings: human respiratory syncytial virus, NHBE, 72 h, read-out: RSV NHBE EC50 (nM)
in vitro [1] = format: cell-based; settings: human
Method: Example C: CC50 MT4 Cytotoxicity of the compounds was determined in uninfected cells using the cell viability reagent in a similar fashion as described before for other cell types ([…] et al., Antimicrob Agents Chemother. 2008,52(2):655-65). […] Cells were cultured for 4-5 days at 37° C. Following the incubation, the cells were allowed to equilibrate to 25° C., and cell viability was determined by adding Cell-Titer Glo viability reagent. The mixture was incubated for 10 min, and the luminescence signal was quantified using an Envision plate reader. Untreated cell and cells treated at 2 μM puromycin (Sigma, St. Louis, MO) serve as 100% and 0% cell viability control, respectively. The percent of cell viability was calculated for each tested compound concentration relative to the 0% and 100% controls and the CC50 value was determined by non-linear regression as a compound concentration reducing the cell viability by 50%.

in vitro [2] = format: in vitro ADME; settings: human, s9, pH 7.4
Method: Example D: GI S9 Stability […] The S9 metabolic reactions were initiated by the addition of the substrates to the S9 reaction mixture to a final concentration of 2 μM. […] Aliquots ([…]) of the diluted supernatant were analyzed on a Thermo Q-Exactive mass spectrometer as described below. Example F: Liquid Chromatography/Mass Spectroscopy Methods for S9 and Plasma Stability Quantification of test compounds, Reference Compound A (S9 stability assay nucleoside metabolite), and controls was performed by analyte/internal standard peak area ratio (PAR) values measured on a Thermo Q-Exactive mass spectrometer coupled to a Dionex UltiMate 3000 HPLC with a Leap Technologies HTC PAL autosampler. […] Mobile phase A consisted of 0.1% (v/v) formic acid in water. Mobile phase B consisted of 0.1% (v/v) formic acid in acetonitrile. Elution of analytes was achieved by a series of linear gradients of acetonitrile in water containing 0.10% (v/v) formic acid. The mass spectrometer was calibrated on a weekly basis and mass tolerance of 5 ppm was used.

in vitro [3] = settings: human, plasma
[4] = test system: Caco-2 cells (clone C2BBe1); settings: human, Caco-2

| SMILES | EC50 (SARS-CoV2-NLuc) [nM] | EC50 (RSV-Luc5) [nM] | CC50 (in vitro [1]) [µM] | half-life at 2 μM (in vitro [2]) [min] | half-life at 2 μM (in vitro [3]) [min] | Caco2 A to B [4] | Caco2 B to A [4] |
| --- | --- | --- | --- | --- | --- | --- | --- |
| CC1(C)CC(=O)O[C@H]2[C@@H](OC(=O)C1)[C@](C#N)(c1ccc3c(N)ncnn13)O[C@@H]2CO [Compound C11, (7aR,8R,10R,10aR)-8-(4-aminopyrrolo[2,1-f][1,2,4]triazin-7-yl)-10-(hydroxymethyl)-4,4-dimethyl-2,6-dioxooctahydro-2H-furo[3,4-b][1,4]dioxonine-8-carbonitrile] | > 50000 | > 50000 | > 50 | 24.3 | 414 |  |  |
| COC(=O)OC[C@H]1O[C@@](C#N)(c2ccc3c(N)ncnn23)[C@@H]2OC(=O)CC(C)(C)CC(=O)O[C@@H]21 [Compound C15, ((7aR,8R,10R,10aR)-10-(4-aminopyrrolo[2,1-f][1,2,4]triazin-7-yl)-10-cyano-4,4-dimethyl-2,6-dioxooctahydro-2H-furo[3,4-b][1,4]dioxonin-8-yl)methyl methyl carbonate] | > 50000 | > 50000 | > 50 | 6.22 | 16.1 |  |  |
| CC(C)(OC(=O)OC[C@H]1O[C@@](C#N)(c2ccc3c(N)ncnn23)[C@@H]2OC(=O)CCCC(=O)O[C@@H]21)c1ccncc1 [Compound C17, ((7aR,8R,10R,10aR)-10-(4-aminopyrrolo[2,1-f][1,2,4]triazin-7-yl)-10-cyano-2,6-dioxooctahydro-2H-furo[3,4-b][1,4]dioxonin-8-yl)methyl (2-(pyridin-4-yl)propan-2-yl) carbonate] | 29900 | > 50000 | > 50 |  | 31.1 | 2.97 | 15.86 |
| CC(C)COC(=O)OC[C@H]1O[C@@](C#N)(c2ccc3c(N)ncnn23)[C@@H]2OC(=O)CCCC(=O)O[C@@H]21 [Compound C18, ((7aR,8R,10R,10aR)-10-(4-aminopyrrolo[2,1-f][1,2,4]triazin-7-yl)-10-cyano-2,6-dioxooctahydro-2H-furo[3,4-b][1,4]dioxonin-8-yl)methyl isobutyl carbonate] | 1780 | 8490 | > 50 | 0.724 | 7.57 |  |  |
| N#C[C@@]1(c2ccc3c(N)ncnn23)O[C@H](COC(=O)OCCN2CCOCC2)[C@H]2OC(=O)CCCC(=O)O[C@H]21 [Compound C19, ((7aR,8R,10R,10aR)-10-(4-aminopyrrolo[2,1-f][1,2,4]triazin-7-yl)-10-cyano-2,6-dioxooctahydro-2H-furo[3,4-b][1,4]dioxonin-8-yl)methyl (2-morpholinoethyl) carbonate] | 4310 | 8620 | > 50 | 0.552 | 90.3 |  |  |
| CC(C)(OC(=O)OC[C@H]1O[C@@](C#N)(c2ccc3c(N)ncnn23)[C@@H]2OC(=O)CCCC(=O)O[C@@H]21)C(F)F [Compound C25, ((7aR,8R,10R,10aR)-10-(4-aminopyrrolo[2,1-f][1,2,4]triazin-7-yl)-10-cyano-2,6-dioxooctahydro-2H-furo[3,4-b][1,4]dioxonin-8-yl)methyl (1,1-difluoro-2-methylpropan-2-yl) carbonate] | 34300 | 6460 | > 50 | 0.559 | 11.9 |  |  |
| CCOC(=O)C(C)(C)OC(=O)OC[C@H]1O[C@@](C#N)(c2ccc3c(N)ncnn23)[C@@H]2OC(=O)CCCC(=O)O[C@@H]21 [Compound C26, ethyl 2-(((((7aR,8R,10R,10aR)-10-(4-aminopyrrolo[2,1-f][1,2,4]triazin-7-yl)-10-cyano-2,6-dioxooctahydro-2H-furo[3,4-b][1,4]dioxonin-8-yl)methoxy)carbonyl)oxy)-2-methylpropanoate] | 39900 | > 50000 | > 50 | 0.618 | 18.3 |  |  |
| CC(C)(C)COC(=O)OC[C@H]1O[C@@](C#N)(c2ccc3c(N)ncnn23)[C@@H]2OC(=O)CCCC(=O)O[C@@H]21 [Compound C29, ((7aR,8R,10R,10aR)-10-(4-aminopyrrolo[2,1-f][1,2,4]triazin-7-yl)-10-cyano-2,6-dioxooctahydro-2H-furo[3,4-b][1,4]dioxonin-8-yl)methyl neopentyl carbonate] | 2220 | 4660 | > 50 | 0.587 | 12.1 |  |  |
| CCOC(=O)[C@@H]1[C@H](OC(=O)OC[C@H]2O[C@@](C#N)(c3ccc4c(N)ncnn34)[C@@H]3OC(=O)CCCC(=O)O[C@@H]32)CCN1C [Compound C32, ethyl (2S,3R)-3-(((((7aR,8R,10R,10aR)-10-(4-aminopyrrolo[2,1-f][1,2,4]triazin-7-yl)-10-cyano-2,6-dioxooctahydro-2H-furo[3,4-b][1,4]dioxonin-8-yl)methoxy)carbonyl)oxy)-1-methylpyrrolidine-2-carboxylate] | 4970 | 7650 | > 50 | 0.566 | 30.9 |  |  |
| CC(C)COC(=O)OC[C@H]1O[C@@](C#N)(c2ccc3c(N)ncnn23)[C@@H]2OC(=O)CC(C)(C)CC(=O)O[C@@H]21 [Compound C35, ((7aR,8R,10R,10aR)-10-(4-aminopyrrolo[2,1-f][1,2,4]triazin-7-yl)-10-cyano-4,4-dimethyl-2,6-dioxooctahydro-2H-furo[3,4-b][1,4]dioxonin-8-yl)methyl isobutyl carbonate] | > 50000 | > 50000 | > 50 | 0.609 | 73.6 |  |  |
| CC1(C)CC(=O)O[C@H]2[C@@H](OC(=O)C1)[C@](C#N)(c1ccc3c(N)ncnn13)O[C@@H]2COC(=O)OC1CCCC1 [Compound C37, ((7aR,8R,10R,10aR)-10-(4-aminopyrrolo[2,1-f][1,2,4]triazin-7-yl)-10-cyano-4,4-dimethyl-2,6-dioxooctahydro-2H-furo[3,4-b][1,4]dioxonin-8-yl)methyl cyclopentyl carbonate] | > 50000 | > 50000 | > 50 | 5.15 | 300 |  |  |
| CC1(C)CC(=O)O[C@H]2[C@@H](OC(=O)C1)[C@](C#N)(c1ccc3c(N)ncnn13)O[C@@H]2COC(=O)OC(CF)CF [Compound C44, ((7aR,8R,10R,10aR)-10-(4-aminopyrrolo[2,1-f][1,2,4]triazin-7-yl)-10-cyano-4,4-dimethyl-2,6-dioxooctahydro-2H-furo[3,4-b][1,4]dioxonin-8-yl)methyl (1,3-difluoropropan-2-yl) carbonate] | > 50000 | > 50000 | > 50 | 1.22 | 133 |  |  |
| CCOC(=O)[C@@H]1[C@H](OC(=O)OC[C@H]2O[C@@](C#N)(c3ccc4c(N)ncnn34)[C@@H]3OC(=O)CC(C)(C)CC(=O)O[C@@H]32)CCN1C [Compound C49, ethyl (2S,3R)-3-(((((7aR,8R,10R,10aR)-10-(4-aminopyrrolo[2,1-f][1,2,4]triazin-7-yl)-10-cyano-4,4-dimethyl-2,6-dioxooctahydro-2H-furo[3,4-b][1,4]dioxonin-8-yl)methoxy)carbonyl)oxy)-1-methylpyrrolidine-2-carboxylate] | > 50000 | > 50000 | > 50 | 7.81 | 42.5 |  |  |
| CC(C)[C@H](NC(=O)OC(C)(C)C)C(=O)OC[C@H]1O[C@@](C#N)(c2ccc3c(N)ncnn23)[C@@H]2OC(=O)CCCC(=O)O[C@@H]21 [Compound C58, ((7aR,8R,10R,10aR)-10-(4-aminopyrrolo[2,1-f][1,2,4]triazin-7-yl)-10-cyano-2,6-dioxooctahydro-2H-furo[3,4-b][1,4]dioxonin-8-yl)methyl (tert-butoxycarbonyl)-L-valinate] | 5120 | 2840 | > 50 | 0.577 | 26.4 |  |  |
| CC(C)[C@H](N)C(=O)OC[C@H]1O[C@@](C#N)(c2ccc3c(N)ncnn23)[C@@H]2OC(=O)CCCC(=O)O[C@@H]21 [Compound C59, ((7aR,8R,10R,10aR)-10-(4-aminopyrrolo[2,1-f][1,2,4]triazin-7-yl)-10-cyano-2,6-dioxooctahydro-2H-furo[3,4-b][1,4]dioxonin-8-yl)methyl L-valinate] | 6830 | 5970 | > 50 | 0.586 | 18.5 |  |  |
